Several values for one entry are separate records, joined by “and”; a condition that tells them apart may be missing. Equal values may be shown once. Read-outs that look alike come from different tables or passages of the source.
Assay: Plasma pharmacokinetics of aficamten and metabolites after single and multiple oral doses, phase 1 study
Format: in vivo, human
Settings: for AR_AUC (accumulation ratio based on AUC0-24) / AR_Cmax (accumulation ratio based on Cmax): day 14 vs day 1; for Tmax / AUC(0-inf) / AUC(0-t) / Cmax / half-life: human
Procedure: This was a double-blind, randomized, placebo-controlled, phase 1 study including SAD and MD dose cohorts (Figure 1). […] For the second single-dose cohort, 20 mg was chosen as the escalated dose according to the dosing plan scheduled in the phase 3 study (CY 6031: NCT05186818). Furthermore, a multiple oral dose of 5 mg once daily (QD) was selected to explore the steady-state PK exposure in Chinese participants and to compare the findings with the MAD 5 mg QD results in the study CY 6011.
A total of 28 participants were enrolled in the study, with eight participants per SAD cohort (10 mg and 20 mg) and 12 participants in the MD cohort (5 mg). The sample size chosen for this study was based on other precedent PK studies of similar nature and was not based on power calculations. In each SAD cohort, eight eligible participants were randomized in 3:1 ratio to receive a single oral dose of aficamten or the matching placebo after overnight fasting. The dose escalation criteria (see Supplementary File S1) had to be met to proceed from the SAD 10 mg cohort to the SAD 20 mg cohort. In addition, the SAD 20 mg cohort started at least 5 days after the last subject’s administration in the SAD 10 mg cohort. Upon the completion of the SAD 20 mg cohort, the study proceeded to the MD 5 mg cohort when the dose escalation criteria were met. The MD cohort started at least 5 days later after the last subject’s administration in the SAD 20 mg cohort. In the MD cohort, 12 eligible participants were enrolled and randomized in 3:1 ratio to receive multiple oral doses of 5 mg of aficamten or the matching placebo under fasting conditions for 14 days. The investigator would determine if stopping rules (see Supplementary File S2) were met in this cohort.
Blood samples (4 mL) for plasma PK analysis of aficamten and its metabolites (mono-hydroxylated derivative CK-3834282 and its diastereomer CK-3834283) were collected into K2EDTA tubes in the SAD cohorts at the following time points: at pre-dose and at 0.25, 0.5, 1, 1.5, 2, 2.5, 3, 4, 6, 8, 12, 16, 24, 36, 48, 72, 96, and 216 h post-dose. In the MD cohort, blood samples were collected at pre-dose and at 0.25, 0.5, 1, 1.5, 2, 2.5, 3, 4, 6, 8, 12, and 16 h post-dose on day 1; at pre-dose and at 1.5 h post-dose on day 2, days 4–6, and day 9; at pre-dose on day 3, days 7–8, and days 10–13; at pre-dose and at 0.25, 0.5, 1, 1.5, 2, 2.5, 3, 4, 6, 8, 12, 16, 24, 36, 48, 72, 168, and 216 h post-dose on day 14. After collection, blood samples were centrifuged at 1700 g for 10 min at 4°C ± 2°C; plasma was aliquoted and stored at −80°C ± 20°C until analyzed. Meanwhile, samples for urine PK analysis of aficamten were collected in the MD cohort as follows: pre-dose, 0–4 h, 4–8 h, 8–12 h, and 12–24 h on days 1 and 14, respectively.
The samples were determined using a validated ultra-performance liquid chromatography-tandem mass spectrometry (UPLC-MS/MS) method. The detection was performed on a tandem mass spectrometer in the electrospray ionization (ESI)-positive mode. The multiple reactions monitoring (MRM) mode was applied to monitor the following ion transitions: m/z 338.2→213.2 for aficamten and m/z 354.3→ 229.3 for metabolite CK-3834282 and its diastereomer CK-3834283. Note that the diastereomers were separated from chromatography during the analysis. The calibration curves of the plasma and urine samples were linear, ranging from 1 to 500 ng/mL, and the intra- and inter-run accuracies (RE%) and precisions (RSD%) were within ±15%. In addition, the selectivity, matrix effect, extraction recovery, carryover, and stability at different conditions were also fully evaluated.
The plasma PK parameters were evaluated using the plasma concentrations by the non-compartmental model approach using WinNonlin (version 8.3, Certara LP, Princeton, NJ, USA) and were summarized descriptively by the cohort and dose. […]

[1] = MD 5 mg once daily, mean ± SD, listed as Aficamten

Structure (SMILES): CCc1nc(-c2ccc3c(c2)CC[C@H]3NC(=O)c2cnn(C)c2)no1 [aficamten]
- AR_AUC (accumulation ratio based on AUC0-24) (MD 5 mg once daily, mean ± SD): 4.2 and 4.16
- AR_Cmax (accumulation ratio based on Cmax) (MD 5 mg once daily, mean ± SD): 1.8
- AR_AUC (accumulation ratio based on AUC0-24) [1]: 4.2 ± 0.4
- AR_Cmax (accumulation ratio based on Cmax) [1]: 1.8 ± 0.6
- t1/2 (MD 5 mg, day 14, plasma, mean ± SD): 76.8 ± 11.8 h
- tmax (tmax,ss) (MD 5 mg, day 14, plasma, median (minimum, maximum)): 0.5 (0.25, 2.0) h
- CL/F (MD 5 mg, day 14, mean ± SD): 3.8 ± 0.6 L/h
- V/F (MD 5 mg, day 14, mean ± SD): 412.7 ± 66.1 L
- CL/F (SAD 10 mg, mean ± SD): 3.0 ± 0.19 L/h
- V/F (SAD 10 mg, mean ± SD): 320.3 ± 51.3 L
- t1/2 (SAD 20 mg, plasma, mean ± SD): 77.3 ± 13.6 h
- CL/F (SAD 20 mg, mean ± SD): 3.4 ± 0.2 L/h
- V/F (SAD 20 mg, mean ± SD): 371.9 ± 55.4 L
- dose proportionality of plasma exposure (AUC0-24 and Cmax), in words (dose range 5–20 mg): dose-proportional
- Tmax (oral, MD 5 mg, day 1, plasma, median (minimum, maximum), read-out: tmax): 0.5 h
- AUC(0-inf) (oral, SAD 10 mg, plasma, mean ± SD): 3340 ± 223 ng·h/mL
- Tmax (oral, SAD 10 mg, plasma, median (minimum, maximum), read-out: tmax): 0.75 h
- AUC(0-inf) (oral, SAD 20 mg, plasma, mean ± SD): 5990 ± 415 ng·h/mL
- Tmax (oral, SAD 20 mg, plasma, median (minimum, maximum), read-out: tmax): 0.5 h
- AUC(0-t) (plasma, oral, 5 mg, MD 5 mg once daily, day 1, plasma, mean ± SD, N = 9, read-out: AUC0-24): 325 ± 32.6 ng·h/mL
- AUC(0-t) (plasma, oral, 5 mg, MD 5 mg once daily, day 14, plasma, mean ± SD, N = 9, read-out: AUC0-24): 1360 ± 215 ng·h/mL
- AUC(0-t) (plasma, oral, 5 mg, MD 5 mg, day 1, plasma, mean ± SD, read-out: AUC0-t): 324 ± 32.5 ng·h/mL
- Cmax (plasma, oral, 5 mg, MD 5 mg, day 1, plasma, mean ± SD, read-out: Cmax): 72.6 ± 19.5 ng/mL
- half-life (plasma, oral, 5 mg, MD 5 mg, day 1, plasma, mean ± SD, read-out: t1/2 (converted)): 38.6 ± 16.1 h
- Cmax (plasma, oral, 5 mg, MD 5 mg, day 14, plasma, mean ± SD, read-out: Cmax (Cmax,ss)): 122 ± 35.2 ng/mL
- half-life (plasma, oral, 5 mg, MD 5 mg, day 14, plasma, mean ± SD, read-out: t1/2 (converted)): ~77 h
- AUC(0-t) (plasma, oral, 10 mg, SAD 10 mg, plasma, mean ± SD, read-out: AUC0-t): 2780 ± 249 ng·h/mL
- Cmax (plasma, oral, 10 mg, SAD 10 mg, plasma, mean ± SD, read-out: Cmax): 115 ± 29.9 ng/mL
- half-life (plasma, oral, 10 mg, SAD 10 mg, plasma, mean ± SD, read-out: t1/2 (converted)): 73.8 ± 10.2 h
- AUC(0-t) (plasma, oral, 20 mg, SAD 20 mg, plasma, mean ± SD, read-out: AUC0-t): 5290 ± 372 ng·h/mL
- Cmax (plasma, oral, 20 mg, SAD 20 mg, plasma, mean ± SD, read-out: Cmax): 227 ± 71.8 ng/mL
- Tmax (plasma, oral, all cohorts, read-out: time of peak concentration (tmax day 1, tmax,ss day 14)): 0.5 to 0.75 h
- AUC(0-t) (plasma, po, 10 mg, SAD 10 mg single oral dose, fasted, plasma, mean ± SD, N = 6, read-out: AUC0-24): 670 ± 85 ng·h/mL
- AUC(0-t) (plasma, po, 20 mg, SAD 20 mg single oral dose, fasted, plasma, mean ± SD, N = 6, read-out: AUC0-24): 1300 ± 151 ng·h/mL
- half-life (plasma, po, across single oral dose 10 mg and 20 mg and 14 days QD 5 mg, read-out: mean half-life): 74 to 77 h
- half-life (plasma, po, single oral dose of 10 mg and 20 mg of aficamten, across both doses, read-out: t1/2 (arithmetic mean)): 74 to 77 h
